Measurements as given in patent US20160115540A1, “PRODRUGS AND DRUGS” (Biogen MA Inc., priority 2013, published 2016).
Counter-ions that a name gives are not always drawn.

System: blood and tissues
Assay: Transcriptional profiling, acute (single) dosing, EAE mice: blood and tissues
Type: in vivo
From the text: EAE induction is generally performed by immunization with brain extracts, CNS proteins (such as myelin basic protein), or peptides from such protein emulsified in an adjuvant such as complete Freund's adjuvant, e.g., as described in Linker et al., Brain. 2011 March 134(Pt3): 678-92. […] FIG. 17 depicts exemplary immunophenotyping panels used to analyze various immune cell populations (e.g., T cells, T regulatory cells, NK cells, B cells, myeloid cells). […] The number of independent mice whose tissues were harvested for transcript profiling studies and whose data passed QC is shown in TABLE 15. Animals were exposed to CO2 and whole blood collected via cardiac puncture. Two 100 μl aliquots of whole blood were collected in 1.5 mL microcentrifuge tubes and snap frozen in liquid nitrogen. Peripheral (liver, spleen, kidney and jejunum) and CNS brain (cerebellum, hippocampus, striatum and cortex) tissues were harvested and snap frozen in liquid nitrogen, with special care taken to collect tissues of similar size and from the same location. All samples were stored at -80° C. until RNA extraction was conducted. For RNA preparation, frozen tissues were placed in 2 mL RNAse-free 96-well blocks with 1.5 mL QIAzol Lysis Reagent (QIAgen) and a 3.2 mm stainless steel bead (BioSpec Products, Bartlesville, Okla.). Tissues were disrupted for four cycles of 45 seconds in a Mini-Beadbeater (Biospec Products). RNA was extracted in chloroform and the aqueous phase was mixed with an equal volume of 70% ethanol. Extracted RNA was applied to RNeasy 96 plates and purified by the spin method according to the manufacturer's protocol (RNeasy 96 Universal Tissue Protocol, QIAgen, Hilden Germany). 50 ul of snap frozen mouse blood was re-suspended in lysis buffer with proteinase K and arrayed into deep-well plates for automated RNA extraction. RNA extractions were completed on […] (Beckman Coulter, Indianapolis, Ind.) using Agencourt RNAdvance Blood kit (Part number A35604) according to the manufacturer's specifications. RNA integrity was assessed using the HT RNA reagent kit (Part number 760410, Caliper Life Sciences, Hopkinton, Mass.) using a LabChip GX (PerkinElmer, Waltham, Mass.). RNA samples with a RQS score of >8.0 were considered high quality for downstream microarray processing. […] Washing and staining of the hybridized arrays were completed as described in the GeneChip Expression analysis technical manual for HT plate arrays using the Genechip® Array Station (Affymetrix, Santa Clara, Calif.) with modifications as described in […] et al. The processed GeneChip® plate arrays were scanned using GeneTitan scanner (Affymetrix, Santa Clara, Calif.). Affymetrix scans were subject to quality control (QC) measures. These tests included a visual inspection of the distribution of raw signal intensities and an assessment of RNA degradation, relative log expression (RLE), and normalized unscaled standard error (NUSE). All sample scans that passed these QC metrics were included in the analysis. […] Nucleic Acids Res 2003; 31:e15; Li C, et al. Genome Biol 2001; 2:[…]0032). […] Stat Appl Genet Mol Biol 2004; 3:Article3). […] Springer Science+Business Media 2005). […] Generally, no distinct sample groupings were apparent from this analysis; however, in the following cohorts, differences in EAE severity across the mice were manifest in global gene expression patterns: An example of this animal grouping is shown in FIG. 33 for the spinal cord from the chronically-dosed 7 h EAE mice. […] Three distinct groups of mice result from unsupervised clustering, and these animal groups correlate with the cumulative EAE score. […] Subsequent analyses for the cohorts listed above only included those animals with the most severe EAE scores; however, for the cohorts 'Spinal Cord, Acute Dosing, 7 h' and 'Spleen, Acute Dosing, 12 h,' there were an insufficient number of mice in the different treatment groups to perform such a sub-analysis. […]

[1] = EAE, Acute Dosing, 90 mpk MMF-vs-Vehicle, 7 h after last dosing
[2] = EAE, Acute Dosing, 90 mpk MMF-vs-Vehicle, 12 h after last dosing
[3] = lymph node, 100MMF-vs-Veh, 12 h

COC(=O)/C=C/C(=O)O [MMF, monomethyl fumarate]
Number of differentially expressed genes identified: Brain [1]: 0 | Number of differentially expressed genes identified: Cerebellum [1]: 1 | Number of differentially expressed genes identified: Lymph Node [1]: 6 | Number of differentially expressed genes identified: Spleen [1]: 114 | Number of differentially expressed genes identified: Whole blood [1]: 6 | Number of differentially expressed genes identified: Brain [2]: 0 | Number of differentially expressed genes identified: Cerebellum [2]: 1 | Number of differentially expressed genes identified: Lymph Node [2]: 4 | Number of differentially expressed genes identified: Spinal Cord [2]: 1 | Number of differentially expressed genes identified: Whole blood [2]: 7 | FC 5830436I19Rik 1437136_PM_at (cerebellum, 100MMF-vs-Veh, 12 h): 1.87 | FC 1446570_PM_at (cerebellum, 100MMF-vs-Veh, 7 h): 1.51 | FC Aox1 (1419435_PM_at) (lymph node, 100MMF-vs-Veh, 7 h): 2.17 | FC F3 1417408_PM_at (lymph node, 100MMF-vs-Veh, 7 h): 1.57 | FC Gclm 1439050_PM_at (lymph node, 100MMF-vs-Veh, 7 h): 1.50 | FC Nqo1 (1423627_PM_at) (lymph node, 100MMF-vs-Veh, 7 h): 1.98 | FC Srxn1 (1419942_PM_at) (lymph node, 100MMF-vs-Veh, 7 h): 1.65 | FC Srxn1 (1426875_PM_s_at) (lymph node, 100MMF-vs-Veh, 7 h): 1.61 | FC 1446567_PM_at [3]: 1.74 | FC 1457549_PM_at [3]: 1.67 | FC 4930453J04Rik 1454406_PM_at [3]: 1.76 | FC 5830436I19Rik 1437136_PM_at [3]: 1.65 | FC 1445562_PM_at (spinal cord, 100MMF-vs-Veh, 12 h): 2.11 | FC 1190002H23Rik 1438511_PM_a_at (spleen, 100MMF-vs-Veh, 7 h): 1.60 | FC 1438259_PM_at (spleen, 100MMF-vs-Veh, 7 h): 1.56 | FC 1443364_PM_at (spleen, 100MMF-vs-Veh, 7 h): 1.88 | FC 1443911_PM_at (spleen, 100MMF-vs-Veh, 7 h): 1.54 | FC 1444212_PM_at (spleen, 100MMF-vs-Veh, 7 h): 1.54 | FC 1446234_PM_at (spleen, 100MMF-vs-Veh, 7 h): 1.50 | FC 1447706_PM_at (spleen, 100MMF-vs-Veh, 7 h): 1.57 | FC 1451626_PM_x_at (spleen, 100MMF-vs-Veh, 7 h): 1.60 | FC 1452426_PM_x_at (spleen, 100MMF-vs-Veh, 7 h): 1.58 | FC 1458296_PM_at (spleen, 100MMF-vs-Veh, 7 h): 1.79 | FC 1458586_PM_at (spleen, 100MMF-vs-Veh, 7 h): 1.50 | FC 2410129H14Rik 1434664_PM_at (spleen, 100MMF-vs-Veh, 7 h): 1.74 | FC 2410129H14Rik 1455052_PM_a_at (spleen, 100MMF-vs-Veh, 7 h): 1.56 | FC 2610021A01Rik 1438786_PM_a_at (spleen, 100MMF-vs-Veh, 7 h): 1.55 | FC 4732418C07Rik 1446425_PM_at (spleen, 100MMF-vs-Veh, 7 h): 1.53 | FC 5730508B09Rik 1447100_PM_s_at (spleen, 100MMF-vs-Veh, 7 h): 1.91 | FC AI662270 1434067_PM_at (spleen, 100MMF-vs-Veh, 7 h): 1.52 | FC Abi1 1438506_PM_s_at (spleen, 100MMF-vs-Veh, 7 h): 1.61 | FC Aco1 (1456728_PM_x_at) (spleen, 100MMF-vs-Veh, 7 h): 1.69 | FC Acp1 1422716_PM_a_at (spleen, 100MMF-vs-Veh, 7 h): 1.80 | FC Adk 1438292_PM_x_at (spleen, 100MMF-vs-Veh, 7 h): 1.54 | FC Ampd3 1422573_PM_at (spleen, 100MMF-vs-Veh, 7 h): 1.61 | FC Apol9a /// Apol9b 1424518_PM_at (spleen, 100MMF-vs-Veh, 7 h): 1.57 | FC Arhgap21 1428369_PM_s_at (spleen, 100MMF-vs-Veh, 7 h): 1.57 | FC Arl4a 1435092_PM_at (spleen, 100MMF-vs-Veh, 7 h): 2.26 | FC Arl6ip6 1424020_PM_at (spleen, 100MMF-vs-Veh, 7 h): 1.52 | FC B3galnt2 1454842_PM_a_at (spleen, 100MMF-vs-Veh, 7 h): 1.51 | FC Birc6 1442959_PM_at (spleen, 100MMF-vs-Veh, 7 h): 1.54 | FC C79407 1434767_PM_at (spleen, 100MMF-vs-Veh, 7 h): 1.95 | FC C1d 1416886_PM_at (spleen, 100MMF-vs-Veh, 7 h): 1.52 | FC C330027C09Rik 1449699_PM_s_at (spleen, 100MMF-vs-Veh, 7 h): 1.59 | FC Cat 1416429_PM_a_at (spleen, 100MMF-vs-Veh, 7 h): 1.51 | FC Ccl6 (1420249_PM_s_at) (spleen, 100MMF-vs-Veh, 7 h): 1.57 | FC Cdyl 1418070_PM_at (spleen, 100MMF-vs-Veh, 7 h): 1.73 | FC Cenpa 1441864_PM_x_at (spleen, 100MMF-vs-Veh, 7 h): 1.86 | FC Chic2 1429050_PM_at (spleen, 100MMF-vs-Veh, 7 h): 1.67 | FC Cno 1459783_PM_s_at (spleen, 100MMF-vs-Veh, 7 h): 1.58 | FC Cpt1a 1434866_PM_x_at (spleen, 100MMF-vs-Veh, 7 h): 1.54 | FC Cpt1a 1438156_PM_x_at (spleen, 100MMF-vs-Veh, 7 h): 1.52 | FC Cul4a 1451971_PM_at (spleen, 100MMF-vs-Veh, 7 h): 1.71 | FC Cycs /// Gm10053 1456071_PM_a_at (spleen, 100MMF-vs-Veh, 7 h): 1.64 | FC D030056L22Rik 1455384_PM_x_at (spleen, 100MMF-vs-Veh, 7 h): 1.60 | FC Dck 1439012_PM_a_at (spleen, 100MMF-vs-Veh, 7 h): 1.59 | FC Dck 1449176_PM_a_at (spleen, 100MMF-vs-Veh, 7 h): 1.89 | FC Dctn6 1416499_PM_a_at (spleen, 100MMF-vs-Veh, 7 h): 1.53 | FC Dennd4a 1435975_PM_at (spleen, 100MMF-vs-Veh, 7 h): 1.71 | FC Ell2 1450744_PM_at (spleen, 100MMF-vs-Veh, 7 h): 1.58 | FC Elmo1 1424523_PM_at (spleen, 100MMF-vs-Veh, 7 h): 1.52 | FC Gclm 1439050_PM_at (spleen, 100MMF-vs-Veh, 7 h): 1.99
